The source of these data is ChEMBL document CHEMBL1156644, “Cembrane diterpenes from the gorgonian Leptogorgia laxa” (2008).

Common to all, as to assay type: functional
In experiment [1] the test system is HT-29. The experiment in a line: Cytotoxicity against human HT29 cells by SRB method. (In general: In SRB staining, fixed cells bind dye roughly in proportion to their protein.)
For experiment [2], the system named is MDA-MB-231. The experiment in a line: Cytotoxicity against human MDA-MB-231 cells by SRB method.
Experiment [3] relates to A549. Briefly: Cytotoxicity against human A549 cells by SRB method.

SMILES strings stand for the structures.

For `C=C(C)[C@@H]1CC/C(C)=C/CC/C(C)=C\C(=O)C[C@@]2(C)O[C@@H]2C1` [LEPTODIENONE A], the GI50 came to 14.9 µM in experiment [1] and 16.2 µM in experiment [2].

For `C=C(C)[C@@H]1CC/C(C)=C/CC/C(C)=C/C(=O)C[C@@]2(C)O[C@@H]2C1` [LEPTODIENONE B], the GI50 was found to be 10.9 µM in experiment [1], 5.6 µM in experiment [3] and 6.3 µM in experiment [2].

A word on the GI50: it is the concentration giving 50% growth inhibition.
